Values joined by “and” are separate entries in the source; they are usually repeats but may differ in a detail not shown here. Equal entries are not always repeated.
Tests used:
[1] = system: HBV-specific CD8^+ T cells; assay: IFN-γ and granzyme B production in HBV-specific CD8+ T cells from CHB patient PBMCs (7-day expansion and recall, flow cytometry); format: cell-based, human
Description: PBMCs were isolated from whole blood using a standard Ficoll® Paque gradient. Briefly, 25-30 mL of blood was gently overlaid on top of 15 mL Ficoll® Paque Plus solution (GE Healthcare, Chicago, Ill.) in a 50 mL Falcon tube, and centrifuged in an Allegra X-14R (Beckman Coulter, Indianapolis, Ind.) at 520 g for 20 minutes at 25° C. […] Next, the cells were centrifuged at 520 g for 5 minutes and red blood cells (RBC) lysed for 5 minutes at room temperature using RBC Lysis Buffer (eBioscience, San Diego, Calif.). […] PBMCs were either subsequently used for the T cell expansion assay, or were cryopreserved with 10% DMSO in FBS before further use.
PBMCs were seeded at 2-4×10^5 cells/well in 96-well round bottom plates (Corning, N.Y.). […] PBMCs were incubated for 7 days at 37° C. with 5% CO2 in a humidified incubator. […] To inhibit protein transport, 1 μg/mL brefeldin. A solution (Sigma) was added to each well. After overnight incubation, cells were processed for immunostaining and flow cytometry as described herein.
Washed cells were resuspended in Live/Dead Aquamine Stain (Invitrogen) per manufacturer's instructions to determine the viability of the cells by flow cytometry. Live/Dead Aqua stained PBMCs were washed twice with FACS staining buffer (1% FBS in PBS), and then incubated with 50 μL of Fc blocking reagent (BD Biosciences, Franklin Lakes, N.J.) for 10 minutes at room temperature. A mixture of antibodies (50 μL/well) described in Table 6 were added to the blocking solution for surface staining, and PBMCs were incubated with the antibodies for 40 minutes at 4° C. […] Cells were washed twice with the permeabilization reagent included in the FoxP3 staining kit and incubated with antibodies for intracellular staining of IFN-γ and GrB (Table 6) at 1.0 μg/mL. After 1 hour incubation at 4° C., PBMCs were centrifuged and washed twice before being resuspended in FACS buffer. Stained PBMCs were analyzed by flow cytometry using a BD LSRFortessa X-20 Cell Analyzer (Becton Dickinson). BD Comp Beads (BD Biosciences) were used as compensation controls. CD8^+ and CD4^+ T cells were identified by gating on the live Aquamine ^−CD3^+CD8^+ and Aquamine-CD3+CD4^+ PBMC population respectively.
Flow cytometry data was analyzed using FlowJo Flow Cytometry Analysis Software v10 (TreeStar, Ashland, Oreg.). Data was exported and statistical analysis was performed using GraphPad Prism v6 (GraphPad Software, La Jolla, Calif.). Statistical significance relative to the DMSO control was calculated by two-tailed, paired t-test.

PD-1/PD-L1 = PD-1/PD-L1 (Homo sapiens (Human), UniProt Q9NZQ7); assay: PD-1/PD-L1 biochemical protein-protein interaction assay (ALPHA); conditions: 0.3 nM His tagged PD-L1, 2.5 nM biotinylated Fc-PD-1, 60 minutes at 25° C., read-out: IC50 PD-L1-PD1
[2] = 650 nM, HBV core peptide-stimulated PBMCs from 14 CHB donors
[3] = PBMCs from 9 of the 14 CHB donors, compound 139 650 nM, durvalumab 10 μg/mL
[4] = average over CHB donors (14 for compound 139, 9 for durvalumab)
[5] = individual CHB donor, HBV core peptide-stimulated PBMCs, compound 139 at 650 nM

Sequence of PD-1/PD-L1 (Q9NZQ7 19-238): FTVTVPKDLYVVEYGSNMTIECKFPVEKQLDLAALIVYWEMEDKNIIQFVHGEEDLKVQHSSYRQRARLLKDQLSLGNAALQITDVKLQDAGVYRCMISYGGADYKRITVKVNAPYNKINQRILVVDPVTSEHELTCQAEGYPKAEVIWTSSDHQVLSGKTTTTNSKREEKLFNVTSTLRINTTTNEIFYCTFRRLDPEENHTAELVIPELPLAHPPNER

Row | Compound | IC50 (PD-1/PD-L1) [nM] | also measured
1 | COc1nc(-c2cccc(-c3cccc(-c4cnc(CNC[C@@H]5CCC(=O)N5)c(OC)n4)c3Cl)c2Cl)cnc1CNC[C@@H]1CCC(=O)N1 [compound 139] | – | increase of frequency of GrB^+ CD8^+ T cells compared with DMSO [1, 2]: 1.2 fold; increase of frequency of IFN-γ^+ CD8^+ T cells compared with DMSO [1, 2]: 2.5 fold; increase of GrB^+ CD8^+ T cells, comparison with durvalumab [1, 3]: 1.2 fold; increase of IFN-γ^+ CD8^+ T cells, comparison with durvalumab [1, 3]: 2.5 fold; % GrB+ (GrB+ CD8+ T cells), Average [1, 4]: 33.68%; % IFN-γ+ (IFN-γ+ CD8+ T cells), Average [1, 4]: 3.13%; % GrB+ (GrB+ CD8+ T cells) [1, 5]: 47.80% and 8.78% and 50.30% and 30.67% and 28.15% and 24.10% and 45.05% and 20.20% and 33.50% and 52.67% and 18.93% and 23.23% and 55.80% and 32.30%; % IFN-γ+ (IFN-γ+ CD8+ T cells) [1, 5]: 2.63% and 0.94% and 0.41% and 0.61% and 3.06% and 0.90% and 3.28% and 4.69% (2×) and 0.30% and 7.74% and 1.86% and 11.17% and 1.53%
2 | COc1nc(-c2cccc(-c3cccc(-c4cc(C)c(CN5CC(C(=O)O)C6(CCOC6)C5)c(OC)n4)c3Cl)c2Cl)cnc1CNC[C@@H]1CCC(=O)N1 (stereo partly drawn) [compound 654] | 0.071 | –
3 | COc1nc(-c2cccc(-c3cccc(-c4cnc(CN5CC(OCC(N)=O)C5)c(OC)n4)c3Cl)c2Cl)cnc1CN1CC(OCC(N)=O)C1 [compound 657] | 0.064 | –
4 | COc1nc(-c2cccc(-c3cccc(-c4cnc(CN5CC6(C5)CN(C(C)=O)C6)c(OC)n4)c3Cl)c2C)cnc1CN1CC2(C1)CN(C(C)=O)C2 [compound 662] | 0.082 | –
5 | COc1nc(-c2cccc(-c3cccc(-c4cnc(CN5CC[C@@H](CNC(C)=O)C5)c(OC)n4)c3Cl)c2Cl)cnc1CN1CC[C@@H](CNC(C)=O)C1 [compound 663] | 0.281 | –

The next lines start with results.

Row | IC50 (PD-1/PD-L1) [nM] | Compound | also measured
6 | 0.064 | COc1nc(-c2cccc(-c3cccc(-c4cc(C)c(CN5C[C@@H]6CCC[C@]6(C(=O)O)C5)c(OC)n4)c3Cl)c2Cl)cnc1CNC[C@@H]1CCC(=O)N1 [compound 655] | –
7 | 0.167 | COc1nc(-c2cccc(-c3cccc(-c4cnc(CNC[C@H]5C[C@H](O)C5)c(OC)n4)c3Cl)c2Cl)ccc1CNC[C@@H]1CCC(=O)N1 [compound 656] | –
8 | 0.196 | COc1nc(-c2cccc(-c3cccc(-c4cnc(CNC[C@@H]5CCC(=O)N5)c(OC)n4)c3Cl)c2Cl)cnc1CNCC1CCNC1=O (stereo partly drawn) [compound 658] | –
9 | 0.121 | COc1nc(-c2cccc(-c3cccc(-c4cnc(CNC[C@@H]5CCC(=O)N5)c(OC)n4)c3Cl)c2Cl)cnc1CNCC1CCNC(=O)C1 (stereo partly drawn) [compound 659] | –
10 | 0.135 | COc1nc(-c2cccc(-c3cccc(-c4cnc(CNCC5CCNC(=O)C5)c(OC)n4)c3Cl)c2Cl)cnc1CNCC1CCNC(=O)C1 (stereo not drawn) [compound 660] | –
11 | 0.064 | COc1nc(-c2cccc(-c3cccc(-c4cnc(CNCC5CCNC5=O)c(OC)n4)c3Cl)c2Cl)cnc1CNCC1CCNC1=O (stereo not drawn) [compound 661] | –
